Here are results for three molecules from patent publication US9555061B2, “Synthesis and analysis of compounds capable of inducing differentiation of human mesenchymal stems cells into hepatocytes” (National University Corporation Torrori University, priority 2011, dated 2017).

Where two headings read alike, the source gives them in different places. Bounds are passed on as bounds.

Data set [1] concerns UE7T-13 cells. As to conditions: human.
For data set [2], the system named is Wnt/β-catenin signaling pathway. The experiment in a line: Ability of inhibiting Wnt/β-catenin pathway, luciferase assay (UE7T-13). It is filed as cell-based, human. As to conditions: 8 days after the treatment; pTCF4-CMV-luciferase reporter. An excerpt:
FIG. 3 is a schematic diagram illustrating how to establish a human mesenchymal stem cell stably expressing a β-catenin/TCF4/luciferase reporter gene. FIG. 3 illustrates how to construct pTCF4-CMVpro-GL4.20 plasmid by using a luciferase expression vector. The pTCF4-CMVpro-GL4.20 plasmid contains three TCF4 sequences […] upstream of a CMV promoter to express luciferase. In addition, pCMVpro-GL4.20 plasmid was constructed as a control. The resulting plasmids were each linearized, introduced into UE7T-13 by electroporation, and selected using puromycin (0.25 μg/ml) supplemented in a medium. Puromycin-resistant cells were cloned and used for a luciferase assay.
The cell line having a vector stably expressing luciferase was seeded on a 24-well plate, and was cultured at 37° C. At the next day, the medium was changed to a medium containing IC-2, etc., and the cell line was further cultured at 37° C. After that, at days 1, 4, and 8, a luciferase assay system (Promega) was used and the luciferase activity was read with a fluorescence plate reader (ARVO) at a wavelength of 556 nm.
A general note: A reporter such as luciferase makes a cellular process visible.

Data set [3] concerns UE7T-13 cells. The data set can be described thus: Periodic acid-Schiff (PAS) staining (UE7T-13). It is filed as cell-based, human. On the procedure: (3-4) Periodic Acid-Schiff (PAS) Staining (UE7T-13) A cover glass (22×22 mm, […]) was sterilized with 70% EtOH and placed in a 6-well plate. Next, cells were seeded on the cover glass and cultured in a medium containing IC-2, etc. At 8, 16, and 24 days after the initiation of the culture, the cells were washed twice with PBS. Then, the cells were treated with 4% paraformaldehyde/PBS for 20 min and fixed onto the cover glass. As a negative control, 10 mg/ml of α-amylase (10 mg/ml; in 0.1 M phosphate buffer solution at pH 6.8) was added, and the cells were incubated therewith at 37° C. for 1 h to digest their glycogen. Subsequently, 1% aqueous periodic acid was used for oxidation treatment for 10 min. After that, the cells were treated with a Schiff reagent for 15 min to stain glycogen. Then, the cells were washed three times with aqueous sulfurous acid and were washed three times with distilled water. After their nuclei were stained with Mayer's hematoxylin, 50% glycerol diluted with PBS was used to mount the cover glass. Finally, the cells were observed under a light microscope. The cells which had been cultured with 0.1% DMSO were used as a control.

Another data set concerns β-catenin/Tcf complex. The note with it: Drug Discov. Today 2005, 10, 1467-1474; cited from earlier work.
Data set [4] concerns clinical specimen-derived mesenchymal stem cells. The data set can be described thus: PAS staining in clinical specimen-derived mesenchymal stem cells. It is filed as cell-based, human. As to conditions: day 8, PN-3-13 20 μM, IC-2 40 μM. The method, then:
PAS staining was performed according to the following procedure. A cover glass that had been sterilized with 100% ethanol was placed on a 12-well plate. Cells were seeded on the cover glass at a cell density of 1.8×10^4 cells/cm^2. This day was designated as day 0. At day 1 corresponding to the next day, each medium was changed to a medium containing HC-2 (at a final concentration of 20 μM), PN-3-13 (at a final concentration of 20 μM), IC-2 (at a final concentration of 40 μM), or 0.1% DMSO. At day 4, the medium was changed in a manner similar to that at day 1, and the cells were cultured until day 8. At day 8, the cells were washed twice with PBS and were fixed with 4% paraformaldehyde for 30 min. As a negative control, α-amylase (Nacalai Tesque) at a final concentration of 10 mg/ml was added, and the cells were incubated therewith at 37° C. for 1 h to digest their glycogen. Subsequently, the cells were treated with 1% aqueous periodic acid for 5 min. Then, the cells were treated with a Schiff reagent (Nacalai Tesque) for 15 min to stain glycogen. After that, the cells were washed three times with aqueous sulfurous acid and were then washed three times with distilled water. The nuclei were stained with Mayer's Hematoxylin (MUTO PURE CHEMICALS CO., LTD.) for 1 min. […]

The test system is the same in data set [5]. The data set can be described thus: RT-PCR of hepatocyte differentiation marker in clinical specimen-derived mesenchymal stem cells. As to conditions: hexachlorophene 4 μM, HC-2 20 μM, PN-3-13 20 μM, IC-2 40 μM. It is filed as cell-based, human. The method, then:
A fresh bone marrow aspirate was collected under informed consent from a patient (a person) with osteoarthritis who underwent replacement arthroplasty at the Department of Orthopedic Surgery, Tottori University Hospital. This aspirate was subjected to density gradient centrifugation using ficoll (Amersham Biosciences) to separate bone marrow mononuclear cells (FIG. 31). These bone marrow mononuclear cells were suspended in 1 ml of Hanks' balanced salt solution (HBSS, Gibco, Life Technologies Corp.) supplemented with a 100-fold diluted APC-labeled anti-CD90 antibody, a 407-fold diluted PE-labeled anti-CD271 antibody, and 2% fetal bovine serum (FBS, Defined, Thermo Fisher Scientific Inc.), and were stained on ice for 30 min. A flow cytometer (MoFlo XDP, Beckman Coulter Inc.) was used to selectively separate mesenchymal stem cells. The resulting cells were cultured in Dulbecco's Modified Eagle's Medium (Low Glucose, Gibco, Life Technologies Corp.) containing 20% FBS, 100 U/ml penicillin, […] streptomycin (Nacalai Tesque), and 20 ng/ml basic fibroblast growth factor (TRANS GENIC INC., Ltd.) on a 35-mm dish under conditions at 37° C. and 5% CO2. The medium was changed every 4 days. After colonies were formed, the cells were detached using a 0.025% trypsin/1 mM EDTA solution (Nacalai Tesque), split on a 100-mm dish, and cultured under conditions at 37° C. and 5% CO2. Then, the cells which were kept 70 to 80% confluent were detached using trypsin treatment. These cells in one dish were divided into four dishes for passage.
Cells were seeded on a 6-well plate at a cell density of 1.8×10^4 cells/cm^2. This day was designated as day 0. At day 1 corresponding to the next day, the medium was changed to a medium containing any one of hexachlorophene (at a final concentration of 4 μM), HC-2 (at a final concentration of 20 μM), PN-3-13 (at a final concentration of 20 μM), IC-2 (at a final concentration of 40 μM), and 0.1% DMSO. […]

The test system is the same in data set [6]. The experiment in a line: Immunofluorescence staining in clinical specimen-derived mesenchymal stem cells. It is filed as cell-based, human. The note with it: day 8; PN-3-13 20 μM, IC-2 40 μM.
Experimental: A cover glass that had been sterilized with 100% ethanol was placed on a 12-well plate. Cells were seeded on the cover glass at a cell density of 1.8×10^4 cells/cm^2. This day was designated as day 0. At day 1 corresponding to the next day, the medium was changed to a medium containing HC-2 (at a final concentration of 20 μM), PN-3-13 (at a final concentration of 20 μM), IC-2 (at a final concentration of 40 μM), or 0.1% DMSO. At day 4, the medium was changed in a manner similar to that at day 1. At day 8, the culture medium was removed and the cells were washed twice with PBS. Then, in order to perform immunostaining of albumin, the cells were fixed for 20 min with 4% paraformaldehyde (Nacalai Tesque) containing 8% sucrose (Wako Pure Chemical Industries, Ltd.). For immunostaining of C/EBPα or CYP1A1, the cells were fixed for 20 min with 4% paraformaldehyde. After that, the cells were permeated with 0.2% Triton X-100 (Wako Pure Chemical Industries, Ltd.) for 10 min and were then blocked in 3% BSA (Nacalai Tesque) at room temperature for 30 min without shaking.
After the primary antibody reaction, the cells were washed with 0.1% BSA/PBS. […] The cells were incubated with each antibody, and were kept in a dark condition at room temperature for 1 h to carry out a secondary antibody reaction. Their nuclei were stained with DAPI (Cell Signaling Technology Inc.). […]
Data set [7] relates to UE7T-13 cells. The data set can be described thus: Proliferation potential (toxicity), MTT assay (UE7T-13). The note with it: days 2, 4, 8 of treatment. Background: Formazan colour is commonly taken as a measure of viable cells.
For data set [8], the system named is CD90+CD271+ bone marrow-derived mesenchymal stem cells. The data set can be described thus: Urea assay in CD90+CD271+ bone marrow-derived mesenchymal stem cells. It is filed as cell-based, human. As to conditions: hexachlorophene 4 μM, PN-3-13 20 μM, IC-2 40 μM; day 8 plus 96 h ammonium chloride. On the procedure:
A urea assay was performed according to the following protocol. CD90^+CD271^+ bone marrow-derived mesenchymal stem cells were seeded on a 24-well plate at a cell density of 1.8×10^4 cells/cm^2. This day was designated as day 0. At day 1 corresponding to the next day, each medium was changed to a medium containing hexachlorophene (at a final concentration of 4 μM), HC-2 (at a final concentration of 20 μM), PN-3-13 (at a final concentration of 20 μM), IC-2 (at a final concentration of 40 μM), or 0.1% DMSO. At day 4, the medium was changed in a manner similar to that at day 1, and the cells were cultured until day 8. At day 8, the medium was removed, and replaced with a medium containing ammonium chloride (Nacalai Tesque) at a final concentration of 5 mM. The cells were further cultured for 96 h. At 96 h after the addition of ammonium chloride, levels of urea in the medium were determined using a QuantiChrom Urea Assay Kit (BioAssay Systems) according to the attached protocol by reading the absorbance at a wavelength of 520 nm with a microplate reader. The levels of urea were calculated based on a standard sample according to the attached calculation method. As a negative control for the urea assay, used were CD90^+CD271^+ bone marrow-derived mesenchymal stem cells that were seeded one day before the day of the immunostaining and were not subjected to the differentiation induction.

On to `COc1c(Cl)cc(Cl)c(Cl)c1Cc1c(Cl)c(Cl)cc(Cl)c1OC` [HC-1, bis(2,3,5-trichloro-6-methoxyphenyl)methane], for which, in the data set on UE7T-13 cells [1], the “concentration with very low cell toxicity toward UE7T-13 cells” value was at most 8 µM. For the same molecule, in [2], the “concentration that significantly inhibited the Wnt/β-catenin signaling pathway” value is at least 2 µM.
Turning to `O=C1[C@H](Cc2ccc(O)cc2)N2C(=O)CCN(C(=O)NCc3ccccc3)[C@H]2CN1Cc1cccc2ccccc12` [ICG-001], the “intracellular glycogen accumulation compared with negative control (0.1% DMSO)” value with UE7T-13 cells [3] was “did not increase”. The “antagonism of transcriptional activation by a β-catenin/Tcf complex” value in the data set with β-catenin/Tcf complex was “potent antagonist”.
For `O=C(N/N=C/c1c(F)c(F)c(F)c(F)c1F)c1ccccc1Oc1ccccc1` [PN-3-13, N′-[(E)-pentafluorophenylmethylidene]-2-phenoxybenzohydrazide], in data set [2], the “concentration that significantly inhibited the Wnt/β-catenin signaling pathway” value is at least 9 µM. The “cellular glycogen accumulation compared with negative control (0.1% DMSO)” value in data set [4] is “apparent increase”. Moreover, the expression of albumin result in data set [5] is recorded as “induced”. Also, the “levels of expression of albumin, C/EBPα, and CYP1A1 compared with negative control (0.1% DMSO)” value in data set [6] is listed as “apparently increased”. For the same molecule, the “concentration with very low cell toxicity toward UE7T-13 cells” value with UE7T-13 cells [7] is at most 10 µM. Besides, the “cellular urea synthesis compared with negative control (0.1% DMSO)” value in data set [8] was “apparent increase”.
